This note sets out measurements from patent US11197857B2, “Combination therapy” (GlaxoSmithKline Intellectual Property Development Limited, priority 2016, dated 2021).

Series [1] concerns 19 enzymes: Type I and Type II PRMTs and lysine methyltransferases (KMTs). The series can be described thus: methyltransferase selectivity panel. It counts as biochemical. The note with it: for selectivity over other methyltransferases: PRMT5 tool compounds. The text has this: FIG. 31: Phylogenetic tree highlighting the methyltransferases tested in the selectivity panel. […] PRMT9 is shown for relationship purposes only within the family tree and was not evaluated in the panel. Figure adapted from Richon V M. et al.
PRMT9/FBXO11, which is the other Type II PRMT and the only PRMT to lack the THW loop, was not included due to the lack of a functional enzyme assay.

For a further series, the system named is 240 cancer cell lines. The series is described as follows: 10-day 2D growth assay, 240 cell lines. It counts as cell-based. As for the experimental part: FIG. 34: Compound B gIC50 values in cancer cell lines (n=240) from 10 day 2D growth assay. ALL-acute lymphoblastic leukemia, AML-acute myeloid leukemia, CML-chronic myeloid leukemia, DLBCL-diffuse large B-cell lymphoma, HL-Hodgkin lymphoma, HN-head and neck cancer, MM-multiple myeloma, NHL-non-Hodgkin lymphoma, NSCLC-non-small cell lung cancer, PEL-primary effusion lymphoma, SCLC-small cell lung cancer, TCL-T-cell lymphoma.
The tumor types with median gIC50<100 nM were acute myeloid leukemia (AML), chronic myelogenous leukemia (CML), Hodgkin's Lymphoma (HL), multiple myeloma (MM), breast, glioma, kidney, melanoma, and ovarian cancer.

The target of the next series is PRMT5/MEP50 (Homo sapiens, UniProt O14744). The series is described as follows: PRMT5/MEP50 radioactive assay (3H transfer from SAM to H4 peptide / protein substrate). Format: biochemical. The note with it: close analogs of Compound C.
Chain of PRMT5/MEP50 (O14744 whole entry): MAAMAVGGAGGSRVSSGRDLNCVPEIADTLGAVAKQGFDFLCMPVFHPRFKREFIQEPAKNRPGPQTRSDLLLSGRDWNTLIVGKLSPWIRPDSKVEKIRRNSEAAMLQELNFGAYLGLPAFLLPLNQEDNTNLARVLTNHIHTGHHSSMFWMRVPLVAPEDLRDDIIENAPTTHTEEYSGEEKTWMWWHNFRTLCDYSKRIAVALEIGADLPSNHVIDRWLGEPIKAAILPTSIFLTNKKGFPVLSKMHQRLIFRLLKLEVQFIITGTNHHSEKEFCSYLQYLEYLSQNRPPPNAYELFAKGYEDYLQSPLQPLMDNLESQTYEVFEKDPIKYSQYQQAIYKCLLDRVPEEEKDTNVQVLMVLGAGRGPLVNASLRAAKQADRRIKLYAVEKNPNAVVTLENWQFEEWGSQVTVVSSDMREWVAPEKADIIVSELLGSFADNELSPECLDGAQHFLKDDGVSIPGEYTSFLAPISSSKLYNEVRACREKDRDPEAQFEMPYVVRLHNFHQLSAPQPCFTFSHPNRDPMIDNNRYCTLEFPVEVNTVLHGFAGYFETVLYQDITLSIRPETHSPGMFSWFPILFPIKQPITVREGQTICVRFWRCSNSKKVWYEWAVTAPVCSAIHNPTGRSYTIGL
Chain of PRMT5/MEP50 (Q9BQA1 whole entry partner): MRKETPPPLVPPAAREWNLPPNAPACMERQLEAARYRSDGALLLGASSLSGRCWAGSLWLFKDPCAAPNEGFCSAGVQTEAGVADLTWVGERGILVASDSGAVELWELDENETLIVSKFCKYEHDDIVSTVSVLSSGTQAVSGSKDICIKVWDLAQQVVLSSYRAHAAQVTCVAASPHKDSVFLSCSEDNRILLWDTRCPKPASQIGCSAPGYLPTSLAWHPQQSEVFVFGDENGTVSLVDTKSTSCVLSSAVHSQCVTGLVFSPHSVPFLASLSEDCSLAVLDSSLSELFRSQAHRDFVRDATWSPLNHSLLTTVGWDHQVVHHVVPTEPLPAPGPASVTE
The subject of series [2] is breast cancer cell lines (SKBR3, MDA-MB-468, MCF-7, ZR-75-1). The series is described as follows: longer-term (10-12 day) growth/death assay. The note with it: SKBR3, MDA-MB-468 and MCF-7 cells, prolonged exposure (7-10 days). It counts as cell-based.
In series [3] the test system is MDA-MB-468 triple negative breast cancer xenograft model. The series can be described thus: MDA-MB-468 xenograft efficacy and PK/PD. Format: in vivo. Here is the method:
Next, the efficacy of PRMT5 inhibition was evaluated in in vivo models of breast cancer.

In the next series the test system is MCL cell lines. The series can be described thus: 6-day growth/death CTG assay in MCL cell lines. Format: cell-based. The note with it: for IC50: read-out: gIC50.
The next series has as its system Z138 MCL cells. The series can be described thus: 6-day growth/death assay. It counts as cell-based. The note with it: Z138, 6-day.
Series [4] relates to SDMA in a panel of 5 MCL lines. The series is described as follows: SDMA inhibition in MCL panel. The note with it: read-out: SDMA IC50.
Excerpt: (B) SDMA IC50 values in a panel of MCL lines (EPIZYME data, day 4).
For another series, the system named is SDMA in Z138 cells. The series can be described thus: SDMA ELISA. The note with it: Homo sapiens. It counts as cell-based. (In general: An ELISA detects its analyte on a solid surface through an enzyme-linked reagent.)
In series [5] the test system is Maver-1 MCL xenograft model. The series can be described thus: Maver-1 xenograft efficacy and PD. It counts as in vivo. The note with it: for TGI: day 18. Here is the method: (§1) B. Quantified SDMA western data from tumors harvested at the end of the efficacy study (3 hours post last dose).
Series [6] has as its system panel of cancer cell lines. The series can be described thus: cells. It counts as cell-based. The text has this:
DLBCL-diffuse large B-cell lymphoma, GBM-glioblastoma, MCL-mantle cell lymphoma, MM-multiple myeloma
The cell lines were selected to represent tumor types where PRMT5 activity has been reported to regulate key pathways and/or cell growth and survival (such as lymphoma and MCL, glioma, breast and lung cancer lines).

The next series relates to GBM cell lines. The series is described as follows: 2D 6-day growth/death CTG assay. Format: cell-based.
The subject of series [7] is MDM4 splicing, SDMA, p53 and p21 in MCL lines. The series is described as follows: MDM4 splicing (RT-PCR) and SDMA/p53/p21 western. Format: cell-based. Here is the method:
To understand whether p53 activation is associated with MDM4 isoform switching, MDM4 alternative splicing was analyzed. […] The role of the p53 pathway in the biology of the response of p53 wild-type MCL cells to PRMT5 inhibition is being evaluated.

In series [8] the test system is Z-138 MCL xenograft model. The series is described as follows: Z138 xenograft 21-day efficacy and PD. Format: in vivo. The note with it: for TGI: 21-day. Here is the method:
as §1

Another series concerns 4 breast cancer lines. The series is described as follows: propidium iodide FACS cell cycle analysis. The note with it: after 7-10 days of treatment. It counts as cell-based.
Series [9] has as its system gene expression in Z138 cells. The series is described as follows: qPCR gene expression (11 genes). Format: cell-based. The note with it: Homo sapiens, Z-138, 96 h, day 4.
Series [10] deals with patient-derived tumor models and cell lines (n=73). The series can be described thus: soft agar 3D colony formation assay. Format: cell-based. The note with it: n=73 models. The source says: FIG. 35: Compound E relative IC50 values from 8-13 day colony formation assay performed in patient-derived and cell line tumor models.
Tumor types with the lowest median IC50 values were large cell lung cancer, breast, kidney and glioma.

Broadly, the TGI is the reduction of tumour growth relative to the control group. The low end stands for a weaker effect on the tumour, the high end for a stronger effect on the tumour. In general, EC50 refers to the concentration that produces a half-maximal response. Usually EC90 stands for the point of the concentration-response curve where the effect stands at 90%.

Like-named read-outs stand apart in the source and are kept apart here.

On to `O=C(NC[C@H](O)CN1CCc2ccccc2C1)c1ccnc(NC2CCC2)c1` [Compound B], for which the “selectivity over other methyltransferases” value (shortened to “selectivity”) in series [1] is on record as “Selectivity for PRMT5/MEP50 over the other methyltransferases”. Moreover, the IC50 in the series on 240 cancer cell lines (AML, CML, HL, MM, breast, glioma, kidney, melanoma, ovarian cancer, read-out: median gIC50) was under 0.1 µM; in the series with 240 cancer cell lines (majority of cell lines, read-out: gIC50), under 1 µM. Also, at PRMT5/MEP50, the “inhibitory potency compared with Compound C” value is on record as “similar”. Also, in series [2], the nature of response result was “cytotoxic response”.
For the molecule `CC(=O)N1CCC(Nc2cc(C(=O)NC[C@H](O)CN3CCc4ccccc4C3)ncn2)CC1` [Compound C], the values for the SDMA inhibition result in series [3] (100 mg/kg BID) and in series [3] (100 mg/kg QD) were “greater than 90%” and “less than 80%”, respectively. Also, the inhibition of tumour growth (TGI) in series [3] (100 mg/kg BID) is 83%; in series [5] (lowest dose group), 50%; in [5] (top dose groups), over 90%; in [8] (lowest dose group, 25 mg/kg BID) it was 40%; in [8] (top 100 mg/kg BID dose group) it was over 90%. For the same molecule, the efficacy entry in [3] (100 mg/kg QD) is “not efficacious”. The IC50 is over 1 µM in the series on MCL cell lines (1 cell line of the MCL panel); at most 0.1 µM in the series with MCL cell lines (2 lines of the MCL panel); under 0.01 µM with MCL cell lines (3 cell lines of the MCL panel); over 40 µM in series [1] (any of the 19 enzymes); 0.0027 µM with Z138 MCL cells (Homo sapiens, Z-138, 144 h, read-out: gIC50); 0.0003 to 0.014 µM in series [4]. For the same molecule, the IC50 in the series with SDMA in Z138 cells (Z-138, 72 h, day 3) is 0.00479 µM; in series [6] (majority of cell lines tested, read-out: gIC50) it was under 1 µM; with GBM cell lines (144 h, GBM cell lines, 6-day, read-out: gIC50) it was 0.04 to 22 µM. Also, the sensitivity entry with MCL cell lines (Mino, Jeko-1 (ibrutinib sensitive lines)) is “only moderately sensitive”. Besides, the “gIC50” value in the series on MCL cell lines (Z-138, Maver-1 and JVM-2) is “low”; in series [6] (most sensitive lymphoma lines (MCL and DLBCL)), “single digit nM range”. For the same molecule, in series [1] (phylogenetic tree symbol class), the “potency for any other tested enzyme (FIG. 31)” value was > 10^−5 M. In addition, the gIC95 in the series with Z138 MCL cells came out at 82 nM. The same molecule registered a gIC100 with Z138 MCL cells of 880 nM. Also, the half-maximal effective concentration (EC50) was 0.0073 µM in the series on SDMA in Z138 cells (Z-138, 24 h, day 1); 0.00235 µM with SDMA in Z138 cells (Z-138, 72 h, day 3); 0.022 to 0.332 µM in [9]. In addition, the concentration for an effect of 90% (EC90) in the series with SDMA in Z138 cells (Z-138, 72 h, day 3, read-out: SDMA EC90 (complete inhibition above)) amounted to 0.019 µM. Moreover, the “reduction of the methyl mark (SDMA, tumors)” value in [5] (all dose groups) is 80-95%. The nature of response entry in the series with GBM cell lines (with the exception of the SF539 cell line) is given as “largely cytostatic”; in series [2], “cytotoxic response”. The MDM4 isoform switching result in [7] (Z138 and JVM-2 cells (both p53 wild-type)) is on record as “induced MDM4 isoform switching”. In addition, the “concentrations at which SDMA levels were undetectable by Western blot” value in [7] (Z138 cells) is recorded as “above 8 nM”. Further, in [7] (Z138 cells), the “concentrations at which changes in MDM4 splicing and p53/p21 protein expression were apparent” value is “above 8 nM”. In addition, the “p53 and p21 expression” value in series [7] (Z138 cells, 200 nM Compound C) was “increased p53 and p21 expression to similar levels”. The results for the “reduction of the methyl mark (SDMA western, tumors)” value in [8] (all dose groups) and in series [8] (top dose groups) were “greater than 70%” and over 98%, respectively. Further, the body weight loss entry in [8] (all groups in all efficacy studies presented) was “no body weight loss”. In the series with 4 breast cancer lines, the “breast cancer lines with induction of cell death (increase in <2N)” value was 3 out of 4.
On to `O=C(NC[C@H](O)CN1CCc2ccccc2C1)c1cc(NC2COC2)ncn1` [Compound E], for which, in [1], the “selectivity” value was “Selectivity for PRMT5/MEP50 over the other methyltransferases”. In [10], the “share of models with relative growth IC50 values below 1 μM” value is listed as 37%. The “inhibitory potency compared with Compound C” value at PRMT5/MEP50 was “similar”.
As to `CC(=O)N1CCC(Nc2cc(C(=O)NC[C@H](O)CN3CCc4ccccc4C3)ccn2)CC1` [Compound F], in [1], the “selectivity” value was “Selectivity for PRMT5/MEP50 over the other methyltransferases”. In addition, the “inhibitory potency compared with Compound C” value at PRMT5/MEP50 is on record as “similar”.
On to `COc1ccc(C2=N[C@@H](c3ccc(Cl)cc3)[C@@H](c3ccc(Cl)cc3)N2C(=O)N2CCNC(=O)C2)c(OC(C)C)c1` [Nutlin-3, reference compound], for which the “p53 and p21 expression” value in series [7] (Z138 cells, 5 μM MDM2 inhibitor (Nutlin-3)) is “increased p53 and p21 expression to similar levels”.
